In patent US20170172944A1, “METHODS OF TREATING MELANOMA” (Mitchell Woods Pharmaceuticals, Inc., priority 2014, published 2017):
pIC50: −log10 of the molar value.

Columns and labels:
Format in all cases: cell-based, human
UACC-903 cells = experiment: Proliferation assay (xCELLigence RTCA), UACC-903; conditions: UACC-903 cells (lacking EGFR)
Method: (§1) UACC-647, M93-047 and UACC-903 cells were seeded out on E-Plates and allowed to settle. Cells were stimulated with MNF. Cellular proliferation and adherence was measured every 15 min using xCELLigence RTCA station.
as §1, with “minutes” for “min”, “station. Serum-starved UACC647 cells were incubated with range of (R,R′)-MNF concentrations for 24 hours and the levels of [3H]thymidine incorporation were measured.” for “station.”

[1] = system: phosphorylated ERK in M93-047 cells; experiment: Phosphorylated ERK levels, M93-047; conditions: M93-047, serum starved 3 hours, 15 minutes
Method: (§2) Levels of ERK1/2 and its phosphorylated forms were determined using PathScan ELISA kits according to manufacturer's protocol (Perkin Elmer Alphascreen Surefire ERK1/2 assay kit, cat no. TGRES500).
(§3) UACC-647, M93-047 or UACC-903 cells were serum starved for 3 hours and subjected to compound of interest or vehicle for 15 minutes.

UACC647 cells [2] = experiment: Proliferation assay (xCELLigence RTCA), UACC647; conditions: UACC647, E-Plates, measured every 15 minutes
Method: as §1
as §1, with “minutes” for “min”, “station. Serum-starved UACC647 cells were incubated with range of (R,R′)-MNF concentrations for 24 hours and the levels of [3H]thymidine incorporation were measured.” for “station.”

UACC-647 cells [3] = experiment: Migration and invasion towards 10% FBS (xCELLigence RTCA), UACC-647; conditions: for migratory rate / effect of pretreatment on anti-migratory activity of MNF (100 nM): UACC-647, H-89 20 μM; for migratory rate: MNF 100 nM, Forskolin 10 μM; for effect of pretreatment on anti-migratory activity of MNF (100 nM): ICI 118,551 50 nM
Method: (§4) Assays were performed using xCELLigence RTCA Analyzer. Serum-starved cells were allowed to migrate or invade towards 10% FBS via bare microporous PET membrane or Matrigel-coated membrane, respectively.
(§5) Migration and Invasion Assay.
(§6) Migration and invasion of UACC-647, M93-047 and UACC-903 towards 10% FBS were monitored using xCELLigence system
(§7) Serum-starved UACC-647, M93-047 and UACC-903 cells were plated onto unmodified or Matrigel-coated CIM-Plates. The cells were treated with (R,R′)-MNF or vehicle (DMSO, 0.1%). Migration and invasion towards 10% FBS was monitored using xCELLigence RTCA station. Times of half-maximal infiltration of the cells towards serum were calculated and plotted against (R,R′)-MNF concentration.
ICI 118,551 and H-89 pretreatment blocked inhibitory activity of (R,R′)-MNF on UACC-647, while Forskolin mimicked (R,R′)-MNF. UACC-647 were serum-starved, pretreated with ICI 118,551, Forskolin, H-89 or DMSO and plated onto unmodified CIM-Plates. Migration towards 10% FBS was monitored using xCELLigence RTCA station. […] Forskolin (activator of adenylyl cyclase, 10 μM) mimicked MNF (100 nM). […] Pretreatment with H-89 blocked anti-migratory activity of MNF (100 nM).

[4] = system: eukaryotic elongation factor 2 (eEF2) in M93-047 cells; experiment: eEF2 phosphorylation (Western blot), M93-047; conditions: M93-047, serum starved 3 hours, 1 fM to 10 μM, 15 minutes
Method: (§8) Cells were lysed with RIPA buffer containing EGTA and EDTA (Boston BioProducts, Ashland, Mass.). The lysis buffer was mixed with a protease inhibitor cocktail (Sigma-Aldrich). Protein concentrations were measured using the bicinchoninic acid reagent (Thermo-Pierce Biotechnology, Inc., Rockford, Ill.). Proteins (20 μg/well) were separated on 4-12% precast gels (Invitrogen, Carlsbad, Calif.) using SDS-polyacrylamide gel electrophoresis under reducing conditions and were electrophoretically transferred onto polyvinylidene fluoride membrane (Invitrogen). Western blots were performed according to standard methods. The visualization of immunoreactive bands was performed using the ECL Plus Western Blotting Detection System (GE Healthcare, NJ) and their quantification was done by volume densitometry using Image J software and normalization to β-actin. […]
(§9) UACC-647, M93-047 and UACC-903 cells were serum starved for 3 hours and subjected to concentration gradient of (R,R′)-MNF (1 fM to 10 μM) or vehicle (DMSO, 0.1%) for 15 minutes. […] Proteins of interest were detected using (phospho)specific antibodies of rabbit origin and visualized by chemiluminescence. […] Levels of total and phosphorylated form of eEF2 were quantified in (R,R′)-MNF-treated cells by means of volume densitometry.

M93-047 cells [5] = experiment: Scratch wound healing assay, M93-047; conditions: M93-047, 100 pM to 10 μM, 24 hours
Method: (§10) A scratch wound was made with a cell scraper. Cells were pictured using Axiovert 200 microscope and AxioCam HRc camera. (Carl Zeiss)
(§11) UACC-647, M93-047 and UACC-903 cells were cultured until confluency. Uniform scratch wounds were made on the monolayer cultures using cell scraper and the cells were challenge with (R,R′)-MNF (100 pM to 10 μM) or vehicle (DMSO, 0.1%). Images were captured at the onset of the treatment and after 24 hours.

UACC-647 cells [6] = experiment: Scratch wound healing assay, UACC-647; conditions: UACC-647, 100 pM to 10 μM, 24 hours
Method: as §10, §11

UACC647 cells [7] = experiment: [3H]-thymidine incorporation assay; conditions: serum-starved UACC647 cells, 24 hours
Method: [^3H]-Thymidine Incorporation Assay.
Cells were seeded in 12-well plates at approximately 50,000 cells/well and incubated at 37° C. After 24 hours, the wells were rinsed with PBS and replaced with serum-free medium containing the appropriate concentration of the test compounds. After another 24-hour incubation at 37° C., 1 μCi of [^3H]-thymidine was added to each well and incubated at 37° C. for 16 hours. [^3H]-Thymidine incorporation into DNA was monitored after the cells were washed twice with PBS and then lysed in 600 μl of 0.1 N NaOH for 30 minutes with shaking. The lysate was then mixed with 3 mL of liquid scintillation cocktail (Beckman Coulter, Inc., Brea, Calif.), and radioactivity was measured by liquid scintillation counting using Beckman Coulter LS6000IC Scintillation Counter. Data are shown as CPM incorporated compared to the control cells.
as §1, with “minutes” for “min”, “station. Serum-starved UACC647 cells were incubated with range of (R,R′)-MNF concentrations for 24 hours and the levels of [3H]thymidine incorporation were measured.” for “station.”

[8] = system: phosphorylated MEK in UACC-647 cells; experiment: Phosphorylated MEK levels, UACC-647
Method: (R,R′)-MNF decreased basal phosphorylation levels of ERK and MEK. UACC-647, M93-047 or UACC-903 cells were serum starved for 3 hours and subjected to compound of interest or vehicle for 15 minutes. […] Cell pretreatment with 50 nM ICI 118,551 abolished MNF-evoked drop in phospho ERK levels in UACC647.

M93-047 cells [9] = experiment: Migration and invasion towards 10% FBS (xCELLigence RTCA), M93-047
Method: as §4, §5, §6, §7

M93-047 cells [10] = experiment: Proliferation assay (xCELLigence RTCA), M93-047; conditions: M93-047, E-Plates, measured every 15 minutes
Method: as §1
as §1, with “minutes” for “min”, “station. Serum-starved UACC647 cells were incubated with range of (R,R′)-MNF concentrations for 24 hours and the levels of [3H]thymidine incorporation were measured.” for “station.”

[11] = system: phosphorylated ERK in UACC-647 cells; experiment: Phosphorylated ERK levels, UACC-647
Method: as §2, §3

[12] = system: eukaryotic elongation factor 2 (eEF2) in UACC-647 cells; experiment: eEF2 phosphorylation (Western blot), UACC-647; conditions: UACC-647, serum starved 3 hours, 1 fM to 10 μM, 15 minutes
Method: as §8, §9

[13] = system: melanoma cells (UACC-647, M93-047 and UACC-903); experiment: [35S] methionine labeling, de novo protein synthesis; conditions: 10 fM, 10 pM, 10 nM for 15 minutes, then [35S]Met/Cys labeling 30 minutes
Method: [^35S] Methionine Labeling.
Serum starved cells were incubated in serum-free medium without methionine and cysteine and treated with (R,R′)-MNF. Then, [^35S]Met/Cys labeling was carried out. Cell lysates were resolved by SDS-polyacrylamide gel electrophoresis and transferred onto PVD membrane, and autoradiography was performed. The membrane was probed with anti-β-actin antibody to confirm equal protein loading.
Serum starved (3 hours) UACC-647, M93-047 and UACC-903 cells were washed with PBS and incubated in serum-free medium without methionine and cysteine. Then, cells were treated with (R,R′)-MNF (10 fM, 10 pM, 10 nM) or incubated with vehicle (DMSO, 0.1%) for 15 minutes followed by [35S]Met/Cys labeling for 30 minutes. Cell lysates were resolved by SDS-PAGE and transferred onto PVD membrane, and autoradio-graphy was performed. The membrane was probed with anti-β-actin antibody to confirm equal protein loading. Amounts of de novo synthesized proteins were evaluated by means of volume densitometry. Obtained values were normalized to β-actin levels.

SMILES	growth (UACC-903 cells)	nadir of U-shaped dose-response curve of phosphorylated ERK levels [1]	proliferation (UACC647 cells [2])	invasion towards 10% FBS (UACC-647 cells [3]; UACC-647, Matrigel-coated CIM-Plates)	migration towards 10% FBS (UACC-647 cells [3]; UACC-647, unmodified CIM-Plates)	migratory rate (UACC-647 cells [3])	rapid phosphorylation of eEF2 [4]	motility (scratch wound) (M93-047 cells [5])	motility (scratch wound) (UACC-647 cells [6])	pIC50 (UACC647 cells [7]; Homo sapiens)	inhibition of incorporation of radiolabelled thymidine (UACC647 cells [7]; range of concentrations)	levels of phosphorylated MEK [8]	invasion towards 10% FBS (M93-047 cells [9]; M93-047, Matrigel-coated CIM-Plates)	migration towards 10% FBS (M93-047 cells [9]; M93-047, unmodified CIM-Plates)	proliferation (M93-047 cells [10])	nadir of U-shaped dose-response curve of phosphorylated ERK levels ([11]; UACC 647, serum starved 3 hours, 15 minutes)	rapid phosphorylation of eEF2 [12]	de novo protein synthesis [13]	effect of pretreatment on anti-migratory activity of MNF (100 nM) (UACC-647 cells [3])	effect of pretreatment on MNF-evoked drop in phospho ERK levels ([11]; UACC647, pretreatment 50 nM)
COc1ccc(C[C@@H](C)NC[C@H](O)c2cc(O)cc(O)c2)c2ccccc12 [(R,R′)-MNF, (R,R′)-4′-methoxy-1-naphthylfenoterol]	did not inhibit	1 nM	inhibit proliferation	inhibit	inhibit migration	decreased migratory rate	induce rapid phosphorylation	inhibit motility	inhibit motility	6.87	38±3.67%	decreased	inhibit	inhibit migration	inhibit proliferation	1 nM	induce rapid phosphorylation	inhibit	–	–
O=S(=O)(NCCNC/C=C/c1ccc(Br)cc1)c1cccc2cnccc12 [H-89, reference compound]	–	–	–	–	–	increased migratory rate	–	–	–	–	–	–	–	–	–	–	–	–	blocked	–
Cc1ccc(OCC(O)C(C)NC(C)C)c2c1CCC2 (stereo not shown) [ICI 118,551, 3-(isopropylamino)-1-[(7-methyl-4-indanyl)oxy]butan-2-ol, reference compound]	–	–	–	–	–	–	–	–	–	–	–	–	–	–	–	–	–	–	completely abolished	abolished
